This is an account of results in BindingDB's records for doi:10.1021/jm00105a069 (Schering-Plough, 1991).

Structures are written as SMILES. Bounds are passed on as bounds.

A short description of this assay: Concentration required to cause 50% inhibition of platelet activating factor (PAF)-induced platelet aggregation of human platelet rich plasma when challenged with 25 nM PAF.
What is called IC50 is the concentration needed to halve the response being measured. Compound `CN(C)CCC(c1ccc(Cl)cc1)c1ccccn1` (centres undefined) [clorfeniramina] came in with an IC50 of over 50 µM.

As for `CCCC(=O)N1CCC(=C2c3ccc(Cl)cc3CCc3cccnc32)CC1`, 33 µM corresponded to half-maximal inhibition (IC50).

In the case of `COc1ccc2c(c1)CCc1cccnc1C2=C1CCN(C(C)=O)CC1`, the midpoint of inhibition, the IC50, lay at 3.4 µM.

Turning to `CCC(=O)N1CCC(=C2c3ccc(Cl)cc3CCc3cccnc32)CC1`, the half-maximal inhibitory concentration (IC50) came out at 2.4 µM.

`CC(=O)N1CCC(=C2c3cc(F)c(F)cc3CCc3cccnc32)CC1`: the IC50 was found to be 1 µM.

Compound `CC(=O)C1CCC(=C2c3ccc(Cl)cc3CCc3cccnc32)CC1` (centres undefined) returned an IC50 of over 50 µM.

Regarding `CC(=O)N1CCC(=C(c2ccc(Cl)cc2)c2ccccn2)CC1`, 28 µM corresponded to half-maximal inhibition (IC50).

Compound `O=C(c1ccccc1)N1CCC(=C2c3ccc(Cl)cc3CCc3cccnc32)CC1` registered a half-maximal inhibitory concentration (IC50) of over 50 µM.

`CC(=O)N1CCC(=C2c3ccc(F)cc3CCc3cccnc32)CC1` came in with an IC50 of 0.67 µM.

On to `CC(=O)N1CCC(=C2c3ccccc3CCc3ccccc32)CC1`, for which half-maximal inhibition (IC50) required 41 µM.

Turning to `CC(C)(C)C(=O)N1CCC(=C2c3ccc(Cl)cc3CCc3cccnc32)CC1`, the IC50 was over 50 µM.

In turn, `CC(=O)N1CCC(=C2c3ccccc3CCc3cccnc32)CC1` displayed an IC50 of 1.4 µM.

Consider `CC(=O)N1CCC(=C2c3ccc(C)cc3CCc3cccnc32)CC1`, for which it took 1 µM to reach half-maximal inhibition (IC50).

`CC(=O)N1CCC(=C2c3ccc(Br)cc3CCc3cccnc32)CC1` came in with a 50% inhibitory concentration (IC50) of 0.81 µM.

In turn, `CC(=O)N1CCC(=C2c3ccc(O)cc3CCc3cccnc32)CC1` registered an IC50 of 8.7 µM.

In turn, `CN1CCC(=C2c3ccccc3CCc3cccnc32)CC1` registered an IC50 of over 50 µM.

In turn, `CC(=O)N1CCC(=C2c3cc(Cl)c(Cl)cc3CCc3cccnc32)CC1` gave an IC50 of 1.8 µM.

Turning to `COc1cc([C@@H]2CC[C@@H](c3cc(OC)c(OC)c(OC)c3)O2)cc(OC)c1OC`, the IC50 turned out to be 1.5 µM.

Compound `CC(=O)N1CCC(=C2c3ccc(Cl)cc3CCc3cccnc32)CC1` showed an IC50 of 0.61 µM.

Turning to `CC(=O)N(C)CC/C=C1\c2ccc(Cl)cc2CCc2cccnc21`, the half-inhibitory concentration (IC50) is over 50 µM.

`CC(=O)N(C)CC/C=C1/c2ccc(Cl)cc2CCc2cccnc21` gave an IC50 of over 50 µM.

`O=CN1CCC(=C2c3ccc(Cl)cc3CCc3cccnc32)CC1` returned an IC50 of 13 µM.

In turn, `CC(=O)N1CCC(=C2c3cc(Cl)ccc3CCc3cccnc32)CC1` displayed an IC50 of 3.4 µM.

Regarding `CC(=O)N1CCC(=C2c3cc(F)ccc3CCc3cccnc32)CC1`, the IC50 was 0.82 µM.
